Entries after “also recorded” stand apart in the source; their conditions may differ.
How the values were obtained:
[1] = system: patients with Alagille syndrome (ALGS); assay: ASSERT: ObsRO sleep parameters and daytime tiredness; format: in vivo, human
Excerpt: […] Additional secondary efficacy endpoints were as follows: • Change from baseline in pruritus to Month 6 (Weeks 21 to 24) as measured by the Albireo PRO instrument. • Percentage of patients achieving a clinically meaningful decrease in pruritus (pruritis responders) as measured by the ObsRO/PRO instruments. • Change from baseline through Week 24 in patient reported and observer reported itching and scratching severity scores, respectively, for the morning assessment and for the evening assessment; sleep parameters as measured with the Albireo ObsRO/PRO instruments (e.g., tiredness and number of awakenings); and PedsQL subdomain scores. • Assessment of Global Symptom Relief to from baseline to Weeks 4, 12, and 24 as measured by patient, caregiver, and clinician Global Impression of Symptoms GIS (PGIS, CaGIS, CGIS) items. • Change from baseline to Week 24 in xanthomatosis as assessed by the Clinician Xanthoma Scale; serum bile acid levels; serum ALT concentration; and serum AST concentration; gamma-glutamyl transferase concentration; total bilirubin concentration. • Change from baseline in biochemical markers and measures of bile acid synthesis (autotaxin, p-C4, only in patients >10 kg); and total cholesterol concentration.
Itching, Scratching, and Sleep Parameters. Itching, observed scratching, and sleep disturbance were recorded twice each day via eDiary. Patients and/or caregivers were instructed to complete the eDiary every day in the morning after the patient woke and in the evening just before the patient went to sleep throughout the study. The eDiary included ObsRO and PRO items. The PRO items assessed severity of itch, aspects of sleep disturbance (morning diary only), and tiredness. The ObsRO items assessed severity of observed scratching, aspects of observed sleep disturbance (morning diary only), and signs of tiredness (evening diary only). The ObsRO and PRO scratching and itch severity items used 0 to 4 response scales.

[2] = system: patients with Alagille syndrome (ALGS); assay: ASSERT: safety, treatment-emergent adverse events; format: in vivo, human
Excerpt: Safety. The primary safety analysis for this study included the incidence of total treatment-emergent adverse events (AEs) and treatment-emergent adverse events (TEAEs) categorized by causality, severity, and seriousness assessments made by the investigator by comparing study drug exposure to placebo. Other safety assessments included physical examinations, concomitant medications, vital signs, laboratory tests, and liver ultrasound and elastography.

[3] = system: patients with Alagille syndrome (ALGS); assay: Pooled ASSERT and ASSERT-EXT: observer-reported scratching scores; format: in vivo, human; details: for mean scratching score: pooled
Method: (§1) In the completed 24-week ASSERT study, patients with ALGS with history of significant pruritus and elevated serum BAs were randomized 2:1 to once-daily odevixibat 120 μg/kg or placebo, respectively. Patients who completed ASSERT could enter ASSERT-EXT, an ongoing, 72-week open-label extension study in which all patients receive odevixibat 120 μg/kg/day. This pooled analysis included all odevixibat-treated patients from ASSERT and/or ASSERT-EXT and spans from patients' first dose of odevixibat to a data cut-off of Sep. 9, 2022. Assessments over up to 36 weeks of treatment included change in observer-reported scratching scores and sleep parameters, as well as levels of serum BAs, autotaxin (a proposed meditator of pruritus), and 7 alpha-hydroxy-4-cholesten-3-one (C4; a marker of bile acid synthesis). Safety evaluations included assessment of alanine aminotransferase (ALT), total bilirubin, and treatment-emergent adverse events (TEAEs).

[4] = system: patients with Alagille syndrome (ALGS); assay: Pooled ASSERT and ASSERT-EXT: serum bile acids, autotaxin, C4; format: in vivo, human
Method: as §1

[5] = system: patients with Alagille syndrome (ALGS); assay: Pooled ASSERT and ASSERT-EXT: hepatic parameters (ALT, AST, GGT, total bilirubin); format: in vivo, human
Method: as §1
Patients who completed ASSERT could enter ASSERT-EXT, an ongoing 72-week extension study in which all patients received odevixibat 120 μg/kg/day. This pooled analysis spans from patients' first dose of odevixibat in ASSERT and/or ASSERT-EXT to a data cutoff at the end of the 72 week period; data from patients who received placebo in ASSERT are also presented for comparison. In both studies, laboratory assessments included measurement of serum alanine transaminase (ALT), Aspartate transaminase (AST), Gamma-glutamyltransferase (GGT), and total bilirubin levels. Caregivers rated patient pruritus using the PRUCISION™ instrument.

[6] = system: patients with Alagille syndrome (ALGS); assay: ASSERT: global impression of change (CGIC, CaGIC, PGIC) and exit survey; format: in vivo, human; details: post hoc analysis; completion of study
patients with ALGS = details: 6 patients with ALGS; 4 weeks; open-label; cited from earlier work
[7] = system: patients with Alagille syndrome (ALGS); assay: ASSERT pruritus responders: ObsRO scratching score
Excerpt: Treatment with concomitant medications for pruritus was permitted provided the patient was on a stable dosage for ≥4 weeks prior to enrollment that was maintained throughout the study.
Pruritus responders were defined as patients having a ≥1-point decrease in ObsRO scratching score from baseline to weeks 21-24).

[8] = weeks 21-24, caregiver-reported

What does the source list for `CCCCC1(CCCC)CN(c2ccccc2)c2cc(SC)c(OCC(=O)N[C@@H](C(=O)N[C@@H](CC)C(=O)O)c3ccc(O)cc3)cc2S(=O)(=O)N1` [odevixibat, 1,1-dioxo-3,3-dibutyl-5-phenyl-7-methylthio-8-(N-{(R)-α-[N-((S)-1-carboxypropyl)carbamoyl]-4-hydroxybenzyl}carbamoylmethoxy)-2,3,4,5-tetrahydro-1,2,5-benzothiadiazepine]?
mean reduction from baseline in daytime tiredness (5-point scale 0-4) ([1]; baseline to weeks 21 to 24, caregiver-rated): −1.1; LS mean change from baseline, percent of days sleeping with caregiver [1, 8]: −35%; LS mean change from baseline, percent of days with help falling asleep [1, 8]: −43%; LS mean change from baseline, percent of days with soothing [1, 8]: −47%; tolerability ([2]; 120 μg/kg/day over 24 weeks): generally well tolerated; deaths or TEAEs leading to study drug discontinuation ([2]; 24 weeks): No deaths or treatment-emergent adverse events leading to study drug discontinuation; also recorded: no deaths or treatment-emergent adverse events (TEAEs) leading to discontinuation of treatment; incidence of COVID-19 ([2]; 24 weeks): 14.3%; incidence of GI disorders ([2]; 24 weeks): 34%; incidence of abdominal pain (preferred terms abdominal pain and abdominal pain upper) ([2]; 24 weeks): 14%; incidence of bronchitis ([2]; 24 weeks): 8.6%; incidence of infections ([2]; 24 weeks): 51.4%; incidence of liver-related events ([2]; 24 weeks): 11%; incidence of respiratory tract infection ([2]; 24 weeks): 8.6%; incidence of upper respiratory tract infection ([2]; 24 weeks): 8.6%; incidence of SAEs ([2]; 24 weeks, 120 μg/kg/day): 14.3%; incidence of drug-related TEAE diarrhea ([2]; 24 weeks, 120 μg/kg/day): 11%; incidence of drug-related TEAEs ([2]; 24 weeks, 120 μg/kg/day): 23%; incidence of treatment-emergent diarrhea ([2]; 24 weeks, 120 μg/kg/day): 29%; patients with ALT and AST elevations ≥3× baseline without concurrent (within 30 days) elevations in total bilirubin ≥2× baseline ([2]; 24 weeks, n=35): 2 patients; serious infections reported ([2]; 24 weeks, n=35): 3 patients; patients who experienced at least one TEAE ([2]; 26 of 35, 24 weeks, 120 μg/kg/day): 74%; liver decompensation events ([2]; during the study): no cases; mean scratching score ([3]; baseline, before odevixibat): 2.6; patients with a pruritus response (≥1 point reduction from baseline in scratching score) ([3]; last assessment on odevixibat, n=37/49): 76%; mean scratching score ([3]; weeks 1-4, 120 μg/kg/day): 1.7; mean scratching score ([3]; weeks 21-24): 1.0; mean scratching score ([3]; weeks 33-36): 0.6; mean BA level ([4]; average of weeks 20 and 24): 145 µmol/L; mean BA level ([4]; baseline, before odevixibat): 246 µmol/L; mean p-C4 levels following treatment ([4]; up to 36 weeks): approached normal levels; mean BA level ([4]; week 4): 116 µmol/L; mean BA level ([4]; week 36): 116 µmol/L; ALT, Mean (SD), Change to week 48 ([5]; n=9): 64 (102) U/L; AST, Mean (SD), Change to week 48 ([5]; n=9): 37 (72) U/L; GGT, Mean (SD), Change to week 48 ([5]; n=9): 2 (238) U/L; Total bilirubin, Mean (SD), Change to week 48 ([5]; n=9): −1 (16) μmol/L; ALT, Mean (SD), Change to week 36 ([5]; n=15): 79 (91) U/L; AST, Mean (SD), Change to week 36 ([5]; n=16): 67 (66) U/L; GGT, Mean (SD), Change to week 36 ([5]; n=16): 101 (149) U/L; Total bilirubin, Mean (SD), Change to week 36 ([5]; n=16): 10 (37) μmol/L; ALT, Mean (SD), Change to week 24 ([5]; n=37): 57 (81) U/L; AST, Mean (SD), Change to week 24 ([5]; n=37): 43 (89) U/L; GGT, Mean (SD), Change to week 24 ([5]; n=37): 107 (170) U/L; Total bilirubin, Mean (SD), Change to week 24 ([5]; n=37): −1 (19) μmol/L; AST, Mean (SD), Change to week 12 ([5]; n=42): 36 (67) U/L; ALT, Mean (SD), Change to week 12 ([5]; n=43): 63 (82) U/L; GGT, Mean (SD), Change to week 12 ([5]; n=44): 97 (178) U/L; Total bilirubin, Mean (SD), Change to week 12 ([5]; n=44): −3 (32) μmol/L; ALT, Mean (SD), Change to week 4 ([5]; n=46): 55 (71) U/L; AST, Mean (SD), Change to week 4 ([5]; n=46): 40 (67) U/L; GGT, Mean (SD), Change to week 4 ([5]; n=46): 79 (191) U/L; Total bilirubin, Mean (SD), Change to week 4 ([5]; n=46): −4 (19) μmol/L; ALT, Mean (SD), Baseline ([5]; n=52, before odevixibat): 173 (79) U/L; AST, Mean (SD), Baseline ([5]; n=52, before odevixibat): 164 (76) U/L; GGT, Mean (SD), Baseline ([5]; n=52, before odevixibat): 441 (329) U/L; Total bilirubin, Mean (SD), Baseline ([5]; n=52, before odevixibat): 56 (49) μmol/L; concurrent total bilirubin levels in the 4 patients with AST/ALT >3×BL ([5]; pooled): < 2 times the baseline level; patients with on-treatment elevations in ALT and total bilirubin that met Hy's law criteria ([5]; pooled): No patients; patients with potentially clinically significant elevations in AST and/or ALT to >3 times the baseline level ([5]; pooled, n=52): 4 patients; caregivers reporting meaningful change in the patient since the start of treatment (exit survey) [6]: 78%; effect on sBAs, itch, and sleep disturbance (patients with ALGS): reduced sBAs, itch, and sleep disturbance in a majority of those patients; Scratching score, Mean (SE) Change From Baseline ([7]; baseline to weeks 21-24): −2.0 (0.1); Scratching score, Baseline Mean (SE) ([7]; n=28): 2.8 (0.1); Scratching score, Week 24 Mean (SE) ([7]; weeks 21-24, n=28): 0.9 (0.1)

— patent US20240173333A1, “Treating Alagille Syndrome (ALGS)” (priority 2022, published 2024)
